The values below come from article PMC9562341, “AI protein structure prediction-based modeling and mutagenesis of a protostome receptor and peptide ligands reveal key residues for their interaction” (The Journal of Biological Chemistry, 2022).

Holding throughout (type): cell-based
In assay [1] the target is ALKR L157Q (Aplysia californica, UniProt A0A977Q7Q2, L157Q). In words: IP1 accumulation assay, ALKR mutant L157Q in CHO-K1. Particulars: mutant without FLAG tag, n = 3. The source says:
(§1) IP1 accumulation assay measures concentration of IP1 ([88]), that is hydrolyzed from the second messenger, inositol trisphosphate, generated by Gαq pathway when GPCR expressed in CHO-K1 cells is activated by an appropriate ligand. We note two reasons that we selected mammalian CHO-K1 cells for assays for ligand-receptor (GPCR) activity: (1) there are no established molluscan cell lines available; (2) CHO-K1 cells have been extensively utilized not only for vertebrate GPCRs (e.g., ([97])) but also for invertebrate/protostome GPCRs, including other molluscs ([9], [11], [73]), annelids ([8]), jellyfish ([98]), Caenorrhabditis elegans ([99]), and arthropods ([76], [78], [79], [80]). Given that LKRs are only present in protostomes ([6], [7], [66], [67]), an additional advantage of using mammalian cells to assay ligand-receptor activity is that the effects of a possible native LKR in protostome cell lines could be excluded.
(§2) In order to express the Aplysia putative receptor transiently in CHO-K1, the cDNA was cloned into the mammalian expression vector pcDNA3.1(+). […] Transfection experiments were performed when the cells were grown to 70 to 90% confluence. […] On the third day, the activation of the receptors was detected by monitoring IP1 accumulation using IP1 detection kit (Cisbio, 62IPAPEB) with a Tecan Spark plate reader. […]

Assay [2] has as its target ALKR Q133A (Aplysia californica, UniProt A0A977Q7Q2, Q133A). In words: IP1 accumulation assay, ALKR mutant Q133A in CHO-K1.
Excerpt: as §1, §2

In assay [3] the target is ALKR Y213A (Aplysia californica, UniProt A0A977Q7Q2, Y213A). In words: IP1 accumulation assay, ALKR mutant Y213A in CHO-K1.
Excerpt: as §1, §2

The target in assay [4] is T1, ALKR (Aplysia leucokinin-like peptide receptor) (Aplysia californica, UniProt A0A977Q7Q2).
T1 sequence (A0A977Q7Q2 1-429): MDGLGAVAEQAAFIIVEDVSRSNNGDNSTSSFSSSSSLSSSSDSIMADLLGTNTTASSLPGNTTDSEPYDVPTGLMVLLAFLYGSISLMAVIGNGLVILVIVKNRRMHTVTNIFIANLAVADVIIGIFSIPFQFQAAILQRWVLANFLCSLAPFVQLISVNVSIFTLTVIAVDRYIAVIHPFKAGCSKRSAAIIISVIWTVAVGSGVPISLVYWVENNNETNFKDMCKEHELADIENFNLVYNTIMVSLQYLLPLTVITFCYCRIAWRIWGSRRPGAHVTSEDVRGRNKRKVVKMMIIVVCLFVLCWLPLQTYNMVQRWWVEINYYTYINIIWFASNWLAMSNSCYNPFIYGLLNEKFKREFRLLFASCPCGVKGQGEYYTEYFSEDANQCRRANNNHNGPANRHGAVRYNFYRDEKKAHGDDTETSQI
In words: IP1 accumulation assay, CHO-K1 cells transfected with ALKR.
Excerpt: To examine whether the native ALKs could activate the putative ALKR, we expressed the ALKR in Chinese hamster ovary K1 (CHO-K1) cells and examined ALK-mediated changes in the concentration of inositol monophosphate (IP1), a degradation product of the second messenger (inositol trisphosphate) in the Gq signaling pathway upon ligand-induced activation ([88]) (Figs. 4 and S5). […] All endogenous ALK peptides could activate ALKR in a dose-dependent manner (Fig. 4, A–C). […] The lowest EC50 values were for ALK8 (EC50 = 10 nM) and ALK9 (EC50 = 10 nM). The EC50 values for ALK1, ALK2, ALK3, ALK4, ALK5, ALK10, ALK13 were slightly higher than that of ALK9, but there was no statistically significant difference between them (Table S5).
as §1
(§3) In order to express the Aplysia putative receptor transiently in CHO-K1, the cDNA was cloned into the mammalian expression vector pcDNA3.1(+). […] Transfection experiments were performed when the cells were grown to 70 to 90% confluence. For the ALKR, in each dish (60-mm diameter), 4 μg of the putative receptor plasmids [in pcDNA3.1(+)] were mixed with 400 μl of Opti-MEM (Gibco, 11058021), followed by the addition of 15 μl of Turbofect (Thermo Fisher Scientific, R0531). […] Thus, 3 μg of the putative receptor plasmids [in pcDNA3.1(+)] and 3 μg of promiscuous Gαq protein ([89]) [in pcDNA3.1(+)] were cotransfected in the above procedure for the Anopheles LKR ([8], [10]). The CHO-K1 cells with the reagents added above were mixed gently and incubated at room temperature for 15 min. The DNA/Turbofect mixture dropwise was then added to the dish, and the cells were incubated at 37 °C in 5% CO2 overnight. The next day, the cells were trypsinized and reseeded in opaque white 96-well half-area (Corning, 3688) or 384-well tissue culture–treated plates (Corning, 3570) at a density of 20,000 cells/well in F-12K and 10% FBS and incubated at 37 °C in 5% CO2 overnight. On the third day, the activation of the receptors was detected by monitoring IP1 accumulation using IP1 detection kit (Cisbio, 62IPAPEB) with a Tecan Spark plate reader. Except for using 0.5 × reagents for the anti-IP1-cryptate and IP1-d2 reagents, all other procedures were performed in accordance with the IP1 detection kit manufacturer’s instructions.

In assay [5] the target is T2, Anopheles LKR (Anopheles stephensi, UniProt Q694V6).
T2 sequence (Q694V6 1-573): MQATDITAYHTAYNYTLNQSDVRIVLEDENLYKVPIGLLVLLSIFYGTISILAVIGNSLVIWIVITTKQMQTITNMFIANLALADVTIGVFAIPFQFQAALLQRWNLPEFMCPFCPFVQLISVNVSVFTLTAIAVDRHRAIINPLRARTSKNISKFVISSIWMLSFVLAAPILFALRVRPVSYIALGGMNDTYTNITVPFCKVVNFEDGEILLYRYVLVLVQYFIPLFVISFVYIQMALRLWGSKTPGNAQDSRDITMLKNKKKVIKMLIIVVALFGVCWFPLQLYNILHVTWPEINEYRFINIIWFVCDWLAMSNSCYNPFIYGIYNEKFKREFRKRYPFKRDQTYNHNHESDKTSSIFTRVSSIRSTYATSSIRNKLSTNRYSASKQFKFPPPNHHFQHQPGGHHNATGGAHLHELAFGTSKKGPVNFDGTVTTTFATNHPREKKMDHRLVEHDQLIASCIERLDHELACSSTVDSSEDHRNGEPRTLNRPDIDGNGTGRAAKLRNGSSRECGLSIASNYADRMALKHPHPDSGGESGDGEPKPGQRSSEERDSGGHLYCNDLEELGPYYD
In words: IP1 accumulation assay, CHO-K1 cells cotransfected with Anopheles LKR and promiscuous Gαq. Particulars: log scale, mean ± SEM, n = 3.
Excerpt: Considering the similarity of leucokinin-like peptides in different species (Fig. 1), we sought to evaluate cross-activity between leucokinin peptides and their receptors in different species. We selected A. stephensi because it is a pest, and this would also provide an opportunity to determine if Aplysia LKs could be potentially used as insecticides ([67]). […] Thus, we cotransfected promiscuous Gαq with the Anopheles receptor, whereas there was no cotransfection of promiscuous Gαq for ALKR.
as §1
as §3, with “Except for using 0.5 × reagents for the anti-IP1-cryptate and IP1-d2 reagents, all other procedures were performed in accordance with the IP1 detection kit manufacturer’s instructions.” left out

For assay [6], the target named is ALKR Q317A (Aplysia californica, UniProt A0A977Q7Q2, Q317A). In words: IP1 accumulation assay, ALKR mutant Q317A in CHO-K1.
Excerpt: as §1, §2

The target of assay [7] is ALKR Q317N (Aplysia californica, UniProt A0A977Q7Q2, Q317N). In words: IP1 accumulation assay, ALKR mutant Q317N in CHO-K1.
Excerpt: as §1, §2

Assay [8] has as its target ALKR I329Q (Aplysia californica, UniProt A0A977Q7Q2, I329Q). Description: IP1 accumulation assay, ALKR mutant I329Q in CHO-K1.
Excerpt: as §1, §2

Assay [9] has as its target ALKR N314A (Aplysia californica, UniProt A0A977Q7Q2, N314A). In words: IP1 accumulation assay, ALKR mutant N314A in CHO-K1.
Excerpt: as §1, §2

A word on the EC50: it is the concentration giving half of the maximal effect.

Where no end group is shown, it is not given here.

ALKR L157Q, sequence (A0A977Q7Q2 entry or part of it L157Q): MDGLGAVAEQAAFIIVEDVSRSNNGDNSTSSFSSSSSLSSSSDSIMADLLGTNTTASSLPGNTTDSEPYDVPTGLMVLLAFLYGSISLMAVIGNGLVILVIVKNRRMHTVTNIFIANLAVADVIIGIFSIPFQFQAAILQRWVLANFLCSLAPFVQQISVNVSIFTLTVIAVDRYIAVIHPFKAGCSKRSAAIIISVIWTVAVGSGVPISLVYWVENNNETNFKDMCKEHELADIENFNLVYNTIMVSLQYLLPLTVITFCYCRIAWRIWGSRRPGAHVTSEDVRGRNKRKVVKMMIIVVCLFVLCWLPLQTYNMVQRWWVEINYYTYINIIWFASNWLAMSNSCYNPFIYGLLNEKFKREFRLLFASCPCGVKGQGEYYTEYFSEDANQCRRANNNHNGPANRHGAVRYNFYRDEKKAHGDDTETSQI
ALKR Y213A, sequence (A0A977Q7Q2 entry or part of it Y213A): as the sequence (A0A977Q7Q2 entry or part of it L157Q) above, with Q157L, Y213A counted along it
ALKR Q317N, sequence (A0A977Q7Q2 entry or part of it Q317N): as the sequence (A0A977Q7Q2 entry or part of it L157Q) above, with Q157L, Q317N counted along it
ALKR Q133A, sequence (A0A977Q7Q2 entry or part of it Q133A): as the sequence (A0A977Q7Q2 entry or part of it L157Q) above, with Q133A, Q157L counted along it
ALKR I329Q, sequence (A0A977Q7Q2 entry or part of it I329Q): as the sequence (A0A977Q7Q2 entry or part of it L157Q) above, with Q157L, I329Q counted along it
ALKR N314A, sequence (A0A977Q7Q2 entry or part of it N314A): as the sequence (A0A977Q7Q2 entry or part of it L157Q) above, with Q157L, N314A counted along it
ALKR Q317A, sequence (A0A977Q7Q2 entry or part of it Q317A): as the sequence (A0A977Q7Q2 entry or part of it L157Q) above, with Q157L, Q317A counted along it

As to PAFHSWS-NH2 [ALK1], the EC50 in assay [1] (EC50 on ALKR L157Q) was 0.077 µM; in assay [1] (log [EC50] on ALKR L157Q, log scale, mean ± SEM), 0.0708 µM; in [2], 0.0776 µM; in assay [3], 0.372 µM; in [4] (log scale, CHO-K1 transiently transfected with ALKR, no promiscuous Gαq, IP1 detection kit (Cisbio), mean ± SEM, ALK1 n = 13, ALK2 n = 4, others n = 3, inactive: greater than highest concentration tested, read-out: log [EC50] on ALKR (converted)), 0.0138 µM; in [5], 0.282 µM. For the same substance, the EC50 in assay [6] is 0.0562 µM; in assay [7], 0.0251 µM; in assay [8], 6.76 µM; in [9] it was 0.11 µM. In addition, in assay [4] (IP1 accumulation in CHO-K1 transfected with ALKR), the “Activation of ALKR (in words)” value was “active”.
